Series [1] deals with EGF receptor family (e.g., ErbB1 through 4). To be noted: background statement; cited from earlier work.
For series [2] the following is noted: background statement; cited from earlier work.
For series [3], the system named is human epidermal cancer cell tumor (A-431). The experiment in a line: Effect of TGF-α and cisplatin on tumor growth in the A431 human epidermal cancer MetaMouse model. In kind it is in vivo, nude mice. The conditions noted are these: FIGS. 1 and 3; for tumor growth (mean tumor volume): A431 tumor orthotopically implanted in nude mice, cisplatinum 10 mg/kg days 3, 9 (20), TGF-alpha 50 ug/kg days 3-7, 9-13 (20-24), 26 days; for tumor growth inhibition compared with cisplatinum treatment: TGF-alpha alone 50 ug/kg vs cisplatinum 10 mg/kg, A431 model. On the procedure:
Using a nude mouse model and human epidermal cancer cell tumor (A-431), having 10^7 or greater EGF receptors, the inventors investigated whether TGF-alpha would promote tumor growth. In a parallel experiment, the tumor was treated with a chemotherapeutic agent, cisplatinum. […] In a further parallel experiment, the inventors investigated whether TGF-alpha would directly influence the survival of the tumor. […] Five mice in three of the four groups were sacrificed at this time. […] Phase 3 began on day 20.
The study consisted of four groups of nude mice:
1. Group A—control (15 animals); this group was implanted with tumor and treated only with placebo (according to TGF-injection schedule).
2. Group B—TGF-controls (10 animals); this group was implanted with tumor and received only TGF-injection (according to TGF-injection schedule).
PHASE 1 :On day 1 all animals were orthotopically implanted with tumor in their breast fat flaps (2-3 tumor tissue specimens per animal). On day 3 in the morning the tumor was measured in all animals. Then animals from group B and D received the first injection of TGF-alpha, animals from group A and C received placebo. Six hours later animals from group C and D received cisplatin injection.
(§1) TGF-alpha was injected at a concentration of 1 microgram per mouse (assuming mouse weighs 20 gram) or 50 microgram per kg.
On day 4, day 5, day 6 and day 7 animals from group B and D received additional TGF-alpha injections spaced 24 hours from the first administration; at the same time, animals from group A and C received placebo.
On day 6 the tumor load in all animals was measured again.
On day 8, five animals were randomly selected from group A, C and D for sacrifice. Their tumor load was measured again, their blood drawn and their intestines, kidneys and spleen removed and preserved. The spleen weight was determined at the time of collection.
(§2) Phase 2. […] On day 10, day 11, day 12 and day 13 animals from group B and D received additional TGF-alpha injections spaced 24 hours from the 9th day administration; animals from group A and C receive placebo at the same time.
On day 12 the tumor load in all animals was measured again. On day 15 […]. their tumor load was measured again, their blood drawn and their intestines, kidneys and spleen removed and preserved. The spleen weight was determined at the time of collection.
Phase 3. On day 20 in the morning the tumor load was measured in all remaining animals according to anticancer procedure. Each group of 10 (groups A, B, C, D) mice were divided into two subgroups: for phase 3A, 5 animals in each group were maintained with no further treatments). […]

A short description of series [4]: Toxicity (body weight, death) in tumor-bearing nude mice of the A431 model. In kind it is in vivo.
Source text: Using a nude mouse model and human epidermal cancer cell tumor (A-431), having 10^7 or greater EGF receptors, the inventors investigated whether TGF-alpha would promote tumor growth. […] In a further parallel experiment, the inventors investigated whether TGF-alpha would directly influence the survival of the tumor. […] Five mice in three of the four groups were sacrificed at this time. […] Phase 3 began on day 20.
PHASE 1 :On day 1 all animals were orthotopically implanted with tumor in their breast fat flaps (2-3 tumor tissue specimens per animal). On day 3 in the morning the tumor was measured in all animals. Then animals from group B and D received the first injection of TGF-alpha, animals from group A and C received placebo.
as §1, §2
Phase 3. On day 20 in the morning the tumor load was measured in all remaining animals according to anticancer procedure. Each group of 10 (groups A, B, C, D) mice were divided into two subgroups: for phase 3A, 5 animals in each group were maintained with no further treatments). For phase 3B, 5 animals from original groups B and D received another injection of TGF-alpha and animals from original group A and C received placebo. […] On day 21, 22, 23 and 24 the five animals from original groups B and D received additional TGF-alpha injections spaced 24 hours from the 20th day of administration; the five selected animals from original group a and c received placebo at the same time. The experiment was terminated on day 26.
body weight—daily for all animals

With “transforming growth factor alpha [TGF-alpha]”, the binding affinity entry in series [1] was “high affinity in the nanomolar range”. Further, in series [2], the “acid and heat stability” value is “acid and heat stable”. In addition, in series [3], the “tumor growth (mean tumor volume)” value is given as “inhibited tumor growth” and the “tumor growth inhibition compared with cisplatinum treatment” value is given as “to the same degree as cisplatinum treatment”. Also, the “tumor growth inhibition compared with cisplatinum treatment” value in series [3] (listed as TGF-α) is recorded as “as effective as cisplatin”. Also, the “protection against death caused by the third treatment of cisplatinum” value in series [4] (TGF-alpha 50 ug/kg days 20-24 with cisplatinum 10 mg/kg day 20, FIG. 4) is reported as “protected against the death”. The “protection against toxicity of cisplatinum” value in series [4] (TGF-alpha 50 ug/kg given with cisplatinum 10 mg/kg, FIGS. 2 and 4) is listed as “protected against toxicity of cisplatinum”. Also, the body weight entry in series [4] (mean body weight, daily, 26 days, FIGS. 2 and 4, cisplatin effect at the third treatment (day 20)) is “no effect on body weight”.
Regarding `N.N.[Cl][Pt][Cl]` [cisplatinum, cisplatin, reference compound], in series [3], the “tumor growth (mean tumor volume)” value is recorded as “more effective than the control”.

The record behind these values is patent US20020077291A1, “Method of treatment of tumors using transforming growth factor-alpha” (priority 2000, published 2002).
